Laboratory results published in patent US20210228560A1 (Centogene IP GmbH, priority 2011, published 2021).

Tests used:
[1] = molecular target: T1, wild type GLA (Homo sapiens, UniProt P06280); type: cell-based
T1 sequence (P06280 32-429): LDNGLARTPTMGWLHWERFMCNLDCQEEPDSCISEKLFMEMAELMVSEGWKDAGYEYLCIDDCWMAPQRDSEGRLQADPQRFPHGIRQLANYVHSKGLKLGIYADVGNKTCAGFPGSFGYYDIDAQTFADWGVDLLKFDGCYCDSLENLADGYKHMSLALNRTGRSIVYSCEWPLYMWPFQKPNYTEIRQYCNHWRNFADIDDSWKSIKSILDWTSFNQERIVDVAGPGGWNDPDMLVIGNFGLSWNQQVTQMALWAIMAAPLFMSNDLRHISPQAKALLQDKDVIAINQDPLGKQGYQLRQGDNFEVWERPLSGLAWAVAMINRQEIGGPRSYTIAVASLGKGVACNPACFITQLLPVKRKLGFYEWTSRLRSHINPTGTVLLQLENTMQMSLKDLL
Protocol: A bacterial clone containing the full length cDNA of α-galactosidase A (IRAUp969H0320D, aligned to accession no. NM_000169.2 (GeneBank)) was received form ImaGenes GmbH, Berlin, Germany. Amplification was performed with the primers 5′-[…] […]-3′ (SEQ ID NO:1) and 5′-[…]-3′ (SEQ ID NO:2) introducing unique restriction sites for BamHI and BstBI. The PCR was taken out using cloned Pfu DNA polymerase (Stratagene). The cDNA was subcloned into pGEM-T Easy vector (Promega). Prior to ligation, the cDNA insert was incubated with Taq polymerase (Qiagen) to add a poly (A) overhang at the 3′-end for TA-cloning. For expression, the α-Gal A cDNA was ligated into target vector pcDNA3.1/V5-His6 (Invitrogen).

[2] = system: α-Gal A protein (GLA mutants); assay: Western blot of GLA protein levels in cells transfected with GLA mutants; type: cell-based; settings: DGJ and Ambroxol compared to DGJ alone; FIG. 4
Protocol: Western blot analysis for the detection of α-Gal A protein was performed using a commercially available rabbit anti-α-Gal A polyclonal antibody ([H-104] Santa Cruz) Furthermore, a mouse GAPDH monoclonal antibody ([6C5] abcam) was used as an internal loading control.
The cells were then rinsed off from the wells, transferred to micro centrifuge tubes and spun at 14000×g for 10 minutes at 4° C. to pellet the cell debris. The supernatant was used for the analysis. After the determination of protein concentration, […] protein were mixed with a suitable volume of 5× Laemmli loading buffer, boiled for 5 minutes on a thermo shaker (Eppendorf), centrifuged at 14000×g for 10 minutes at 4° C. and loaded on a Criterion precast 4-15% Tris-HCl gel (Bio-Rad). Proteins were transferred electorophoretically to a Nitrocellulose (Amersham Hybond ECL) membrane (GE Healthcare). The membrane was blocked with 5% (w/v) non-fat dried skimmed milk in TBS-Tween 20 [10 mM Tris/HCl (pH 7.5) with 150 mM NaCl and 0.1% Tween 20] at room temperature for 1 hour, and then treated with a primary antibody against GAPDH diluted 1:10000 in a milk/blot solution [3% (w/v) non-fat dried skimmed milk in TBS-Tween 20] at 4° C. overnight. […] Following extensive washing with TBS-Tween 20, protein bands were visualized with an Odyssey Infrared Imager (Li-Cor) and quantified using the Odyssey software.

[3] = molecular target: GLA mutants (alpha-galactosidase A) (Homo sapiens, UniProt P06280, A156V); settings: GLA mutant A156V; Ambroxol in combination with DGJ
Sequence of GLA mutants (alpha-galactosidase A) (Homo sapiens, UniProt P06280, A156V) (P06280 32-429 A156V): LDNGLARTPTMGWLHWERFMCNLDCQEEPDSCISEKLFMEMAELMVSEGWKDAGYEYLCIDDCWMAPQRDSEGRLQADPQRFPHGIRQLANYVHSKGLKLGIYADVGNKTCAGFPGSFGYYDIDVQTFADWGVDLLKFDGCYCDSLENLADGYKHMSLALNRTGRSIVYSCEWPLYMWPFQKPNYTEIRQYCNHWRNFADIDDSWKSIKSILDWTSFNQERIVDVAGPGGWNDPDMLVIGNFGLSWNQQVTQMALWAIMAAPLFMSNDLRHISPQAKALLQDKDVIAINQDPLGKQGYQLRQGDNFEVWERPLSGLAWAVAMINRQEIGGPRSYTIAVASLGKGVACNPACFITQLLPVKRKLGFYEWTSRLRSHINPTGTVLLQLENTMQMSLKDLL

[4] = molecular target: GLA mutants (alpha-galactosidase A) (Homo sapiens, UniProt P06280, E59K); settings: GLA mutant E59K; Ambroxol in combination with DGJ
Sequence of GLA mutants (alpha-galactosidase A) (Homo sapiens, UniProt P06280, E59K) (P06280 32-429 E59K): as the sequence (P06280 32-429 A156V) above, with E28K, V125A counted along it

[5] = molecular target: GLA mutants (alpha-galactosidase A) (Homo sapiens, UniProt P06280, G328A); settings: GLA mutant G328A; Ambroxol in combination with DGJ
Sequence of GLA mutants (alpha-galactosidase A) (Homo sapiens, UniProt P06280, G328A) (P06280 32-429 G328A): as the sequence (P06280 32-429 A156V) above, with V125A, G297A counted along it

[6] = molecular target: GLA mutants (alpha-galactosidase A) (Homo sapiens, UniProt P06280, H225R); settings: GLA mutant H225R; Ambroxol in combination with DGJ
Sequence of GLA mutants (alpha-galactosidase A) (Homo sapiens, UniProt P06280, H225R) (P06280 32-429 H225R): as the sequence (P06280 32-429 A156V) above, with V125A, H194R counted along it

[7] = molecular target: GLA mutants (alpha-galactosidase A) (Homo sapiens, UniProt P06280, M51I); settings: GLA mutant M51I; Ambroxol in combination with DGJ
Sequence of GLA mutants (alpha-galactosidase A) (Homo sapiens, UniProt P06280, M51I) (P06280 32-429 M51I): as the sequence (P06280 32-429 A156V) above, with M20I, V125A counted along it

[8] = molecular target: GLA mutants (alpha-galactosidase A) (Homo sapiens, UniProt P06280, R301Q); settings: GLA mutant R301Q; Ambroxol in combination with DGJ
Sequence of GLA mutants (alpha-galactosidase A) (Homo sapiens, UniProt P06280, R301Q) (P06280 32-429 R301Q): as the sequence (P06280 32-429 A156V) above, with V125A, R270Q counted along it

[9] = molecular target: GLA mutants (alpha-galactosidase A) (Homo sapiens, UniProt P06280, R356W); settings: GLA mutant R356W; Ambroxol in combination with DGJ
Sequence of GLA mutants (alpha-galactosidase A) (Homo sapiens, UniProt P06280, R356W) (P06280 32-429 R356W): as the sequence (P06280 32-429 A156V) above, with V125A, R325W counted along it

[10] = molecular target: GLA mutants (alpha-galactosidase A) (Homo sapiens, UniProt P06280, R363H); settings: GLA mutant R363H; Ambroxol in combination with DGJ
Sequence of GLA mutants (alpha-galactosidase A) (Homo sapiens, UniProt P06280, R363H) (P06280 32-429 R363H): as the sequence (P06280 32-429 A156V) above, with V125A, R332H counted along it

[11] = molecular target: GLA mutants (alpha-galactosidase A) (Homo sapiens, UniProt P06280, T410I); settings: GLA mutant T410I; Ambroxol in combination with DGJ
Sequence of GLA mutants (alpha-galactosidase A) (Homo sapiens, UniProt P06280, T410I) (P06280 32-429 T410I): as the sequence (P06280 32-429 A156V) above, with V125A, T379I counted along it

[12] = system: GLA mutants (alpha-galactosidase A)

SMILES: Nc1c(Br)cc(Br)cc1CN[C@H]1CC[C@H](O)CC1 [Ambroxol, 2-amino-3,5-dibromo-N-[trans-4-hydroxycyclohexyl]benzylamine]
- enzyme activity of the GLA of the wild type ([1]; 40 μM Ambroxol alone, FIG. 1): increase in enzyme activity
- inhibition of wild type GLA ([1]; Ambroxol dose-response, FIG. 2): not inhibiting
- Ambroxol titer at or beyond which local maximum or saturation of wild type GLA activity ([1]; FIG. 2): > 60 µM
- EC50 ([1]; read-out: EC50 of increase of wild type GLA activity): 21.2 µM
- amount of Gal A protein in the cell (Western blot) [2]: higher amount of Gal A
- additive Ambroxol effect demonstrated [3]: **** (****p≤0.005)
- additive Ambroxol effect demonstrated [4]: **** (****p≤0.005)
- additive Ambroxol effect demonstrated [5]: * (*p≤0.1)
- additive Ambroxol effect demonstrated [6]: ** (**p≤0.05)
- additive Ambroxol effect demonstrated [7]: ** (**p≤0.05)
- additive Ambroxol effect demonstrated [8]: **** (****p≤0.005)
- additive Ambroxol effect demonstrated [9]: **** (****p≤0.005)
- additive Ambroxol effect demonstrated [10]: *** (***p≤0.01)
- additive Ambroxol effect demonstrated [11]: * (*p≤0.1)
- effect on enzyme activity of the mutant forms of GLA ([12]; 40 μM Ambroxol alone, FIG. 1): no effect
- activity of mutant alpha-galactosidase A, Ambroxol together with Galactose ([12]; compared to Galactose only, 100 mM galactose and 40 μM Ambroxol (FIG. 3B)): increased
- significance of protein activity, Ambroxol and DGJ compared to DGJ alone ([12]; mutations E59K, A156V and G328A, FIG. 6): significant
